Data: patent publication US20150190509A1, “RESIN[…]” (MESTEX AG, priority 2012, published 2015)

Assays:
[1] = storage stability of RTX dissolved in ethanol with or without protective gas; assay type: physicochemical
Experimental: Under these circumstances a loss of the RTX dissolved in ethanol occurs, on the order of magnitude of 10% in 3 months. However, if the RTX is dissolved together with argon in ethanol or in other body-compatible solvents, the loss at ambient temperature remains very low. As described in further detail below, RTX in the resiniferatoxin solution according to the invention even loses its undesired tendency to cling to polymeric surfaces.

[2] = loss of RTX on contact with polymer (polypropylene) syringe; assay type: physicochemical; settings: diluted ready-for-use solution (buffer solution and hyaluronic acid), kept in polypropylene syringe for 10 minutes
Text: An additional positive property of the resiniferatoxin solution according to the invention is the fact that the substance is stabilized even in a diluted, ready-for-use solution (i.e. diluted with a buffer solution and hyaluronic acid), so that it can also be used in combination with commercial, polymer plastic syringes which are usually produced from polypropylene, polyethylene, polyurethane and other materials. To date, it has been considered absolutely necessary for the RTX solution not to come in contact with the polymer, because it binds immediately to it.

**Q.** For `C=C(C)[C@]12C[C@@H](C)[C@@]34O[C@](Cc5ccccc5)(O[C@@H]1[C@@H]3C=C(COC(=O)Cc1ccc(O)c(OC)c1)C[C@]1(O)C(=O)C(C)=C[C@@H]41)O2` [RTX, Resiniferatoxin], which “RTX content (stability of the dissolved RTX) over months” value (shortened to “RTX content … over months”) ([1]; RTX dissolved in ethanol at 5° C. with 0.07 wt% argon, second measurement series) is on record?
**A.** The value was 100%.

**Q.** What about the “RTX content … over months” value ([1]; RTX dissolved in ethanol at 5° C. without additional protective gas (argon), first measurement series) of the same compound?
**A.** The value was “continuous decrease”.

**Q.** And the “RTX content … over months” value ([1]; RTX dissolved in ethanol at 25° C. with 0.07 wt % argon, third measurement series)?
**A.** The value was 100%.

**Q.** And the “loss of RTX at ambient temperature” value ([1]; RTX dissolved together with argon in ethanol or other body-compatible solvents, ambient temperature)?
**A.** Its value is “very low”.

**Q.** And the “loss of the RTX dissolved in ethanol” value ([1]; frozen RTX stored under protective gas (argon), then dissolved with ethanol, in 3 months)?
**A.** The value was ~10%.

**Q.** And the “loss of RTX in polypropylene syringe” value [2]?
**A.** Its value is “without measurable loss”.
